These results are taken from PMC8878748, “Broad-Spectrum Antiviral Activity of the Amphibian Antimicrobial Peptide Temporin L and Its Analogs” (International Journal of Molecular Sciences, 2022).

Series [1] is described as follows: MTT cytotoxicity assay on Vero cells. The conditions noted are these: MTT, calculated after 2 h of peptide treatment. Type of series: cell-based.
The test system of series [2] is Vero cells. Nature of the series: MTT cytotoxicity assay on Vero cells. The class given is cell-based. Particulars: 2 h of treatment, concentration above 50 μM. (In general: Tetrazolium dyes change colour on reduction, which living cells bring about.)
Series [3] has as its system MeV. Particulars: 2 h.
For series [4], the system named is influenza virus (subtype H1N1). Particulars: influenza virus (subtype, 2 h).
Series [5] has as its system HSV-1. Details: method as in PMID 29483113. Particulars: preincubation of HSV-1 purified virions with 20 µg/mL; cited from earlier work.

pIC50: −log10 of the molar value. Where a SMILES comes first, the peptide text is derived from it. [ ]: non-standard residue; d: D form. The star is where a group is joined. X1 = CC(C)CCC[C@@H](C)[C@H]1CC[C@H]2[C@@H]3CC=C4C[C@@H](OC(=O)CCOCCOCCOCCOCCNC(=O)C*)CC[C@]4(C)[C@H]3CC[C@]12C; Nle = CCCC[C@H](N)C(=O)O

The term CC50 denotes the concentration at which the toxic effect on the cells reaches its halfway point. The term pIC50 denotes the IC50 on a negative log10 scale, so that one unit is a factor of ten. A lower pIC50 goes with a large IC50. For orientation: IC90 means the concentration needed for an effect of 90%. High values mean a need for much substance, low ones an effect from little substance. Turning to `CCCC[C@H](NC(=O)[C@@H](CC(C)C)NC(=O)[C@H](Cc1ccccc1)NC(=O)[C@H](CCCCN)NC(=O)[C@H](CO)NC(=O)[C@H](Cc1ccccc1)NC(=O)[C@H](Cc1c[nH]c2ccccc12)NC(=O)[C@@H]1CCCN1C(=O)[C@@H](NC(=O)[C@@H](N)Cc1ccccc1)C(C)C)C(=O)N[C@@H](CCCNC(=N)N)C(=O)N[C@H](C(=O)N[C@@H](CC(C)C)C(=O)NCC(=O)NCC(=O)N[C@@H](CSCC(=O)NCCOCCOCCOCCOCCC(=O)O[C@H]1CC[C@@]2(C)C(=CC[C@H]3[C@@H]4CC[C@H]([C@H](C)CCCC(C)C)[C@@]4(C)CC[C@@H]32)C1)C(N)=O)[C@@H](C)CC` [TL6.2, H-Phe-Val-Pro-Trp-Phe-Ser-Lys-Phe-DLeu-Nle-Arg-Ile-Leu-Gly-Gly-Cys-[PEG4-Cholesterol]-NH2] (H-FVPWFSKF[dL][Nle]RILGGC(X1)-NH2), the CC50 in series [1] is over 100 µM. In addition, the toxicity entry in series [2] is recorded as “about 40%”. For the same compound, the figures for the pIC50 in series [3] and in series [4] were 4.39 and 4.68, respectively. The IC90 in series [3] was over 50 µM; in series [4], 49.9 µM.

Take temporin B [TB]: the “reduction of virus titers” value in series [5] is on record as 5 log.
